Test results as given in patent US12495798B2, “Nicotinamide compound and herbicidal composition comprising compound” (KOREA RESEARCH INSTITUTE OF CHEMICAL TECHNOLOGY, priority 2019, dated 2025).

Experiments:
Type in all cases: in vivo
black nightshade [1] = test: Herbicidal activity test against upland field weeds (soil treatment test); parameters: key to Soil treatment herbicidal activity, black nightshade: 0 (no control); 100 (complete control); details: 50 g ai/ha, scale 0 (no control) to 100 (complete control)
Method: (§1) Experimental Example 2: Herbicidal Activity Test Against Upland Field Weeds (Soil Treatment Test) Soil treatment was performed as follows: After filling a square plastic pot having a surface area of 350 cm^2 with sandy loam mixed with 1 g per pot (350 cm^2) of horticultural mixed fertilizer (N:P:K=11:10:11), seeds (10˜15 grains) or rootstocks (2 pieces) of 5 kinds of grassy weeds of sorghum, barnyard grass, quack grass, crabgrass, fall panicum, and 5 kinds of broadleaf weeds of black nightshade, indian jointvetch, velvetleaf, cocklebur, bindweed, which had been stored in a low temperature (6° C.), were sown. The day after sowing, test compound solutions were made by diluting with a preparation solution (including 50% acetone, 0.1% Tween-20) so that the final treatment amount of the test compounds was 50 or 75 g a.i./ha. The prepared test compound solution was used for treating soil surface by hand-spraying 14 mL per pot in a fume hood. After the treatment, it was managed under the same greenhouse conditions (average temperature 30±5° C., light/dark=14/10 hours), and after 14 days (after 21 days if necessary), the external symptoms and efficacy were investigated according to the scale of 0 (no control) to 100 (complete control). The results of Table 8 were obtained by evaluating weed control value to the untreated control by conducting visual assessment.

crabgrass [2] = test: as above; parameters: key to Soil treatment herbicidal activity, Crabgrass: 0 (no control); 100 (complete control); details: 50 g ai/ha, scale 0 (no control) to 100 (complete control)
Method: as §1

quack grass [3] = test: as above; parameters: key to Soil treatment herbicidal activity, quack grass: 0 (no control); 100 (complete control); details: 50 g ai/ha, scale 0 (no control) to 100 (complete control)
Method: as §1

fall panicum [4] = test: as above; parameters: key to Soil treatment herbicidal activity, Fall panicum: 0 (no control); 100 (complete control); details: 50 g ai/ha, scale 0 (no control) to 100 (complete control)
Method: as §1

indian jointvetch [5] = test: as above; parameters: key to Soil treatment herbicidal activity, Indian jointvetch: 0 (no control); 100 (complete control); details: 50 g ai/ha, scale 0 (no control) to 100 (complete control)
Method: as §1

black nightshade [6] = test: Herbicidal activity test against upland field weeds (foliar treatment test); parameters: key to Foliar treatment herbicidal activity, black nightshade: 0 (no control); 100 (complete control); details: 50 g ai/ha, scale 0-100; for pest or weed control at 50 g/ha: Solanum nigrum
In short: (§2)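 Greenhouse-grown plants (30±5 °C, 14/10 h light/dark) foliar hand-sprayed with compound in 50% acetone, 0.1% Tween-20 at 50 or 75 g a.i./ha. Control visually scored 0 (none) to 100 (complete) versus untreated after 14 days, or 21 days if needed.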

quack grass [7] = test: as above; parameters: key to Foliar treatment herbicidal activity, quack grass: 0 (no control); 100 (complete control); details: 50 g ai/ha, scale 0-100
In short: as §2

crabgrass [8] = test: as above; parameters: key to Foliar treatment herbicidal activity, Crabgrass: 0 (no control); 100 (complete control); details: 50 g ai/ha, scale 0-100
In short: as §2

velvetleaf [9] = test: Herbicidal activity test against upland field weeds (soil treatment test); parameters: key to Soil treatment herbicidal activity, velvet leaf: 0 (no control); 100 (complete control); details: 50 g ai/ha, scale 0 (no control) to 100 (complete control)
Method: as §1

indian jointvetch [10] = test: Herbicidal activity test against upland field weeds (foliar treatment test); parameters: key to Foliar treatment herbicidal activity, Indian jointvetch: 0 (no control); 100 (complete control); details: 50 g ai/ha, scale 0-100
In short: as §2

barnyard grass [11] = test: as above; parameters: key to Foliar treatment herbicidal activity, barnyard grass: 0 (no control); 100 (complete control); details: 50 g ai/ha, scale 0-100
In short: as §2

sorghum [12] = test: Herbicidal activity test against upland field weeds (soil treatment test); parameters: key to Soil treatment herbicidal activity, Sorghum: 0 (no control); 100 (complete control); details: 50 g ai/ha, scale 0 (no control) to 100 (complete control)
Method: as §1

barnyard grass [13] = test: as above; parameters: key to Soil treatment herbicidal activity, barnyard grass: 0 (no control); 100 (complete control); details: 50 g ai/ha, scale 0 (no control) to 100 (complete control)
Method: as §1

bindweed [14] = test: as above; parameters: key to Soil treatment herbicidal activity, Bindweed: 0 (no control); 100 (complete control); details: 50 g ai/ha, scale 0 (no control) to 100 (complete control)
Method: as §1

velvetleaf [15] = test: Herbicidal activity test against upland field weeds (foliar treatment test); parameters: key to Foliar treatment herbicidal activity, velvet leaf: 0 (no control); 100 (complete control); details: 50 g ai/ha; for Foliar treatment herbicidal activity, velvet leaf: scale 0-100; for pest or weed control at 50 g/ha: Abutilon theophrasti, scale 0-100, read-out: Foliar treatment herbicidal activity, velvet leaf
In short: as §2

sorghum [16] = test: as above; parameters: key to Foliar treatment herbicidal activity, Sorghum: 0 (no control); 100 (complete control); details: 50 g ai/ha, scale 0-100; for plant injury at 50 g/ha: Sorghum
In short: as §2

bindweed [17] = test: as above; parameters: key to Foliar treatment herbicidal activity, Bindweed: 0 (no control); 100 (complete control); details: 50 g ai/ha, scale 0-100
In short: as §2

fall panicum [18] = test: as above; parameters: key to Foliar treatment herbicidal activity, Fall panicum: 0 (no control); 100 (complete control); details: 50 g ai/ha, scale 0-100; for pest or weed control at 50 g/ha: Panicum dichotomiflorum
In short: as §2

cocklebur = test: as above; parameters: key to Foliar treatment herbicidal activity, Cocklebur: 0 (no control); 100 (complete control); details: 50 g ai/ha, scale 0-100; for pest or weed control at 50 g/ha: Xanthium strumarium
In short: as §2

| Structure (SMILES) | Soil treatment herbicidal activity, black nightshade (black nightshade [1]) | Soil treatment herbicidal activity, Crabgrass (crabgrass [2]) | Soil treatment herbicidal activity, quack grass (quack grass [3]) | Soil treatment herbicidal activity, Fall panicum (fall panicum [4]) | Soil treatment herbicidal activity, Indian jointvetch (indian jointvetch [5]) | Foliar treatment herbicidal activity, black nightshade (black nightshade [6]) | Foliar treatment herbicidal activity, quack grass (quack grass [7]) | Foliar treatment herbicidal activity, Crabgrass (crabgrass [8]) | Soil treatment herbicidal activity, velvet leaf (velvetleaf [9]) | Foliar treatment herbicidal activity, Indian jointvetch (indian jointvetch [10]) | Foliar treatment herbicidal activity, barnyard grass (barnyard grass [11]) | Soil treatment herbicidal activity, Sorghum (sorghum [12]) | Soil treatment herbicidal activity, barnyard grass (barnyard grass [13]) | Soil treatment herbicidal activity, Bindweed (bindweed [14]) | Foliar treatment herbicidal activity, velvet leaf (velvetleaf [15]) | Foliar treatment herbicidal activity, Sorghum (sorghum [16]) | Foliar treatment herbicidal activity, Bindweed (bindweed [17]) | Foliar treatment herbicidal activity, Fall panicum (fall panicum [18]) | Foliar treatment herbicidal activity, Cocklebur (cocklebur) | pest or weed control at 50 g/ha (bindweed [14]) | also measured |
| --- | --- | --- | --- | --- | --- | --- | --- | --- | --- | --- | --- | --- | --- | --- | --- | --- | --- | --- | --- | --- | --- |
| CC(OC(=O)OC1CCCCC1)N(C(=O)c1ccc(C(F)(F)F)nc1COCc1nnn(C)n1)c1nnnn1C (centres unmarked) [Compound No. 4-11, cyclohexyl(1-(N-(1-methyl-1H-tetrazol-5-yl)-2-(((2-methyl-2H-tetrazol-5-yl)methoxy)methyl)-6-(trifluoromethyl)nicotinamido)ethyl)carbonate] | 100 | 100 | 0 | 60 | 40 | 100 | 0 | 98 | 100 | 98 | 98 | 0 | 100 | 0 | 100 | 60 | 100 | 95 | 98 |  |  |
| CN(Cc1nnnn1C)c1nc(C(F)(F)F)ccc1C(=O)Nc1nnnn1C [Compound No. 1-27, 2-(methyl((1-methyl-1H-tetrazol-5-yl)methyl)amino)-N-(1-methyl-1H-tetrazol-5-yl)-6-(trifluoromethyl)nicotinamide] | 100 | 100 |  | 100 | 100 |  |  | 100 | 100 | 100 | 100 | 100 | 100 |  | 100 |  | 100 |  | 100 | 80% | pest or weed control at 50 g/ha (quack grass [3]): 20%; pest or weed control at 50 g/ha (quack grass [7]): 30%; plant injury at 50 g/ha (sorghum [16]): 80%; pest or weed control at 50 g/ha (fall panicum [18]): 80% |
| CCOC(=O)OC(C)N(C(=S)c1ccc(C(F)(F)F)nc1CSCc1nnn(C)n1)c1nnnn1C (centres unmarked) [Compound No. 4-9, ethyl (1-(N-(1-methyl-1H-tetrazol-5-yl)-2-((((2-methyl-2H-tetrazol-5-yl)methyl)thio)methyl)-6-(trifluoromethyl)pyridin-3-carbothioamido)ethyl)carbonate] | 100 | 0 | 0 | 0 | 100 | 98 | 0 | 98 | 100 | 98 | 100 | 0 | 0 |  | 98 | 70 | 100 | 90 | 100 |  |  |
| CC(C)OC(=O)OC(C)N(C(=O)c1ccc(C(F)(F)F)nc1COCc1nnn(C)n1)c1nnnn1C (centres unmarked) [Compound No. 4-12, isopropyl(1-(N-(1-methyl-1H-tetrazol-5-yl)-2-(((2-methyl-2H-tetrazol-5-yl)methoxy)methyl)-6-(trifluoromethyl)nicotinamido)ethyl)carbonate] | 100 | 100 | 0 | 90 | 40 | 100 | 0 | 95 | 100 | 98 | 100 | 20 | 100 | 98 | 100 | 70 | 100 | 98 | 98 |  |  |
| CN(C(=O)c1ccc(C(F)(F)F)nc1OCc1nnnn1C(F)F)c1nnnn1C [Compound No. 1-8, 2-((1-(difluoromethyl)-1H-tetrazol-5-yl)methoxy)-N-methyl-N-(1-methyl-1H-tetrazol-5-yl)-6-(trifluoromethyl)nicotinamide] | 0 |  | 0 | 0 | 100 |  |  | 0 | 100 |  | 0 | 0 | 0 |  |  | 0 |  | 0 |  | 50% | pest or weed control at 50 g/ha (crabgrass [2]; Digitaria sanguinalis): 30%; pest or weed control at 50 g/ha (black nightshade [6]): 98%; pest or weed control at 50 g/ha (indian jointvetch [10]): 70%; pest or weed control at 50 g/ha (velvetleaf [15]): 20%; pest or weed control at 50 g/ha (bindweed [17]): 40%; pest or weed control at 50 g/ha (cocklebur): 20% |
| Cn1cnc(COc2nc(C(F)(F)F)ccc2C(=O)Nc2nnnn2C)n1 [Compound No. 2-43, 2-((1-methyl-1H-1,2,4-triazol-3-yl)methoxy)-N-(1-methyl-1H-tetrazol-5-yl)-6-(trifluoromethyl)nicotinamide] |  | 0 | 0 | 0 |  |  | 0 |  |  |  |  | 0 | 0 | 0 |  |  |  |  |  |  | pest or weed control at 50 g/ha (indian jointvetch [5]): 20%; pest or weed control at 50 g/ha (black nightshade [6]): 95%; pest or weed control at 50 g/ha (crabgrass [8]; Digitaria sanguinalis): 30%; pest or weed control at 50 g/ha (velvetleaf [9]; Abutilon theophrasti, read-out: Soil treatment herbicidal activity, velvet leaf): 30%; pest or weed control at 50 g/ha (indian jointvetch [10]): 20%; pest or weed control at 50 g/ha (barnyard grass [11]; Echinochloa crus-galli): 60%; pest or weed control at 50 g/ha (velvetleaf [15]): 40%; plant injury at 50 g/ha (sorghum [16]): 20%; pest or weed control at 50 g/ha (bindweed [17]): 30%; pest or weed control at 50 g/ha (fall panicum [18]): 50%; pest or weed control at 50 g/ha (cocklebur): 20% |
